According to ChEMBL document CHEMBL1208720, “N-Benzylsalicylthioamides as novel compounds with promising antimycotic activity” (2010):
≈ marks a conversion by molar mass, not a printed value.

What was measured:
Format in all cases: functional
Nakaseomyces glabratus [1] = assay: Antifungal activity against Candida glabrata 20/I after 48 hrs by broth microdilution assay; conditions: Nakaseomyces glabratus, 20/I, 48 h
Trichosporon asahii [2] = assay: Antifungal activity against Trichosporon asahii 1188 after 24 hrs by broth microdilution assay; conditions: Trichosporon asahii, 1188, 24 h
Trichosporon asahii [3] = assay: Antifungal activity against Trichosporon asahii 1188 after 48 hrs by broth microdilution assay; conditions: Trichosporon asahii, 1188, 48 h
Pichia kudriavzevii [4] = assay: Antifungal activity against Candida krusei E28 after 48 hrs by broth microdilution assay; conditions: Pichia kudriavzevii, E28, 48 h
Lichtheimia corymbifera [5] = assay: Antifungal activity against Absidia corymbifera 272 after 24 hrs by broth microdilution assay; conditions: Lichtheimia corymbifera, 272, 24 h
Candida albicans [6] = assay: Antifungal activity against Candida albicans ATCC 44859 after 48 hrs by broth microdilution assay; conditions: Candida albicans, ATCC 44859, 48 h
Nakaseomyces glabratus [7] = assay: Antifungal activity against Candida glabrata 20/I after 24 hrs by broth microdilution assay; conditions: Nakaseomyces glabratus, 20/I, 24 h
Pichia kudriavzevii [8] = assay: Antifungal activity against Candida krusei E28 after 24 hrs by broth microdilution assay; conditions: Pichia kudriavzevii, E28, 24 h
Aspergillus fumigatus [9] = assay: Antifungal activity against Aspergillus fumigatus 231 after 24 hrs by broth microdilution assay; conditions: Aspergillus fumigatus, 231, 24 h
Candida tropicalis [10] = assay: Antifungal activity against Candida tropicalis 159 after 24 hrs by broth microdilution assay; conditions: Candida tropicalis, 159, 24 h
Lichtheimia corymbifera [11] = assay: Antifungal activity against Absidia corymbifera 272 after 48 hrs by broth microdilution assay; conditions: Lichtheimia corymbifera, 272, 48 h
[12] = test system: Trichophyton mentagrophytes; assay: Antifungal activity against Trichophyton mentagrophytes 445 after 120 hrs by broth microdilution assay; conditions: Trichophyton mentagrophytes, 445, 120 h
Candida albicans [13] = assay: Antifungal activity against Candida albicans ATCC 44859 after 24 hrs by broth microdilution assay; conditions: Candida albicans, ATCC 44859, 24 h
Candida tropicalis [14] = assay: Antifungal activity against Candida tropicalis 159 after 48 hrs by broth microdilution assay; conditions: Candida tropicalis, 159, 48 h
[15] = test system: Trichophyton mentagrophytes; assay: Antifungal activity against Trichophyton mentagrophytes 445 after 72 hrs by broth microdilution assay; conditions: Trichophyton mentagrophytes, 445, 72 h
Aspergillus fumigatus [16] = assay: Antifungal activity against Aspergillus fumigatus 231 after 48 hrs by broth microdilution assay; conditions: Aspergillus fumigatus, 231, 48 h

Row | Structure (SMILES) | MIC (Nakaseomyces glabratus [1]) | MIC (Trichosporon asahii [2]) | MIC (Trichosporon asahii [3]) | MIC (Pichia kudriavzevii [4]) | MIC (Lichtheimia corymbifera [5]) | MIC (Candida albicans [6]) | MIC (Nakaseomyces glabratus [7]) | MIC (Pichia kudriavzevii [8]) | MIC (Aspergillus fumigatus [9]) | MIC (Candida tropicalis [10]) | MIC (Lichtheimia corymbifera [11]) | MIC [12] | MIC (Candida albicans [13]) | MIC (Candida tropicalis [14]) | MIC [15] | MIC (Aspergillus fumigatus [16])
1 | Oc1ccc(Br)cc1C(=S)NCc1ccc(Br)cc1 | 125 µM (≈ 50.1 µg/mL) | 3.9 µM (≈ 1.56 µg/mL) | 7.81 µM (≈ 3.13 µg/mL) | 15.6 µM (≈ 6.27 µg/mL) | 3.9 µM (≈ 1.56 µg/mL) | 31.2 µM (≈ 12.5 µg/mL) | 31.2 µM (≈ 12.5 µg/mL) | 3.9 µM (≈ 1.56 µg/mL) | 15.6 µM (≈ 6.27 µg/mL) | 31.2 µM (≈ 12.5 µg/mL) | 3.9 µM (≈ 1.56 µg/mL) | 31.2 µM (≈ 12.5 µg/mL) | 15.6 µM (≈ 6.27 µg/mL) | 31.2 µM (≈ 12.5 µg/mL) | 15.6 µM (≈ 6.27 µg/mL) | 15.6 µM (≈ 6.27 µg/mL)
2 | Oc1ccc(Cl)cc1C(=S)NCc1ccc(F)cc1 | 125 µM (≈ 37 µg/mL) | 7.81 µM (≈ 2.31 µg/mL) | 15.6 µM (≈ 4.62 µg/mL) | 15.6 µM (≈ 4.62 µg/mL) | 15.6 µM (≈ 4.62 µg/mL) | 125 µM (≈ 37 µg/mL) | 62.5 µM (≈ 18.5 µg/mL) | 7.81 µM (≈ 2.31 µg/mL) | 31.2 µM (≈ 9.24 µg/mL) | 62.5 µM (≈ 18.5 µg/mL) | 15.6 µM (≈ 4.62 µg/mL) | 15.6 µM (≈ 4.62 µg/mL) | 31.2 µM (≈ 9.24 µg/mL) | 125 µM (≈ 37 µg/mL) | 15.6 µM (≈ 4.62 µg/mL) | 15.6 µM (≈ 4.62 µg/mL)
3 | Oc1ccc(Br)cc1C(=S)NCc1ccc(Cl)c(Cl)c1 | 62.5 µM (≈ 24.4 µg/mL) | 3.9 µM (≈ 1.53 µg/mL) | 7.81 µM (≈ 3.05 µg/mL) | 15.6 µM (≈ 6.11 µg/mL) | 3.9 µM (≈ 1.53 µg/mL) | 31.2 µM (≈ 12.2 µg/mL) | 31.2 µM (≈ 12.2 µg/mL) | 7.81 µM (≈ 3.05 µg/mL) | 7.81 µM (≈ 3.05 µg/mL) | 31.2 µM (≈ 12.2 µg/mL) | 3.9 µM (≈ 1.53 µg/mL) | 0.98 µM (≈ 0.383 µg/mL) | 15.6 µM (≈ 6.11 µg/mL) | 31.2 µM (≈ 12.2 µg/mL) | 0.98 µM (≈ 0.383 µg/mL) | 7.81 µM (≈ 3.05 µg/mL)
4 | Oc1cc(Cl)ccc1C(=S)NCc1ccc(Br)cc1 | 31.2 µM (≈ 11.1 µg/mL) | 7.81 µM (≈ 2.79 µg/mL) | 7.81 µM (≈ 2.79 µg/mL) | 15.6 µM (≈ 5.57 µg/mL) | 0.98 µM (≈ 0.35 µg/mL) | 31.2 µM (≈ 11.1 µg/mL) | 31.2 µM (≈ 11.1 µg/mL) | 3.9 µM (≈ 1.39 µg/mL) | 7.81 µM (≈ 2.79 µg/mL) | 31.2 µM (≈ 11.1 µg/mL) | 1.95 µM (≈ 0.696 µg/mL) | 1.95 µM (≈ 0.696 µg/mL) | 15.6 µM (≈ 5.57 µg/mL) | 31.2 µM (≈ 11.1 µg/mL) | 0.98 µM (≈ 0.35 µg/mL) | 7.81 µM (≈ 2.79 µg/mL)
5 | CC(C)(C)c1ccc(CNC(=S)c2ccccc2O)cc1 | > 500 µM | 250 µM (≈ 74.9 µg/mL) | 250 µM (≈ 74.9 µg/mL) | > 500 µM | 15.6 µM (≈ 4.68 µg/mL) | > 500 µM | > 500 µM | > 500 µM | 250 µM (≈ 74.9 µg/mL) | > 500 µM | 62.5 µM (≈ 18.7 µg/mL) | 15.6 µM (≈ 4.68 µg/mL) | > 500 µM | > 500 µM | 15.6 µM (≈ 4.68 µg/mL) | > 500 µM

Further lines, results first:

Row | MIC (Nakaseomyces glabratus [1]) | MIC (Trichosporon asahii [2]) | MIC (Trichosporon asahii [3]) | MIC (Pichia kudriavzevii [4]) | MIC (Lichtheimia corymbifera [5]) | MIC (Candida albicans [6]) | MIC (Nakaseomyces glabratus [7]) | MIC (Pichia kudriavzevii [8]) | MIC (Aspergillus fumigatus [9]) | MIC (Candida tropicalis [10]) | MIC (Lichtheimia corymbifera [11]) | MIC [12] | MIC (Candida albicans [13]) | MIC (Candida tropicalis [14]) | MIC [15] | MIC (Aspergillus fumigatus [16]) | Structure (SMILES)
6 | 31.2 µM (≈ 9.76 µg/mL) | 15.6 µM (≈ 4.88 µg/mL) | 15.6 µM (≈ 4.88 µg/mL) | 31.2 µM (≈ 9.76 µg/mL) | 7.81 µM (≈ 2.44 µg/mL) | 31.2 µM (≈ 9.76 µg/mL) | 31.2 µM (≈ 9.76 µg/mL) | 15.6 µM (≈ 4.88 µg/mL) | 15.6 µM (≈ 4.88 µg/mL) | 31.2 µM (≈ 9.76 µg/mL) | 15.6 µM (≈ 4.88 µg/mL) | 15.6 µM (≈ 4.88 µg/mL) | 15.6 µM (≈ 4.88 µg/mL) | 31.2 µM (≈ 9.76 µg/mL) | 7.81 µM (≈ 2.44 µg/mL) | 31.2 µM (≈ 9.76 µg/mL) | Oc1ccccc1C(=S)NCc1ccc(Cl)c(Cl)c1
7 | 31.2 µM (≈ 12.5 µg/mL) | 15.6 µM (≈ 6.27 µg/mL) | 31.2 µM (≈ 12.5 µg/mL) | 7.81 µM (≈ 3.13 µg/mL) | 3.9 µM (≈ 1.56 µg/mL) | 31.2 µM (≈ 12.5 µg/mL) | 7.81 µM (≈ 3.13 µg/mL) | 3.9 µM (≈ 1.56 µg/mL) | 7.81 µM (≈ 3.13 µg/mL) | 15.6 µM (≈ 6.27 µg/mL) | 3.9 µM (≈ 1.56 µg/mL) | 1.95 µM (≈ 0.782 µg/mL) | 15.6 µM (≈ 6.27 µg/mL) | 62.5 µM (≈ 25.1 µg/mL) | 1.95 µM (≈ 0.782 µg/mL) | 15.6 µM (≈ 6.27 µg/mL) | Oc1ccc(Br)cc1C(=S)NCc1cccc(Br)c1
8 | 31.2 µM (≈ 10.8 µg/mL) | 3.9 µM (≈ 1.35 µg/mL) | 7.81 µM (≈ 2.71 µg/mL) | 15.6 µM (≈ 5.41 µg/mL) | 3.9 µM (≈ 1.35 µg/mL) | 31.2 µM (≈ 10.8 µg/mL) | 31.2 µM (≈ 10.8 µg/mL) | 3.9 µM (≈ 1.35 µg/mL) | 3.9 µM (≈ 1.35 µg/mL) | 31.2 µM (≈ 10.8 µg/mL) | 7.81 µM (≈ 2.71 µg/mL) | 0.98 µM (≈ 0.34 µg/mL) | 31.2 µM (≈ 10.8 µg/mL) | 62.5 µM (≈ 21.7 µg/mL) | 0.98 µM (≈ 0.34 µg/mL) | 15.6 µM (≈ 5.41 µg/mL) | Oc1ccc(Cl)cc1C(=S)NCc1ccc(Cl)c(Cl)c1
